# Results taken from EP0603240B1, “SAFENING HERBICIDAL PYRAZOLYLSULFONYLUREAS” (priority 1991, dated 1993).
# How the values were obtained:
# Type in all cases: in vivo
# [1] = test system: barnyardgrass (Echinochloa crusgalli); experiment: Example 9, Procedure II: Herbicide No. 1 + pretilachlor (No. 13) with antidotes
# Experimental: (§1) Containers were filled and compacted with a fumigated silt loam top soil to a depth of about 1.3 cm from the top of the container. A first container was designated as an untreated control, a second container was designated as a herbicide control, and a third container was designated as a herbicide + antidote test container. Each of the containers was seeded with a crop species. A measured amount of herbicide dispersed or dissolved in acetone was applied to a measured quantity of soil. To this same quantity of soil treated with herbicide, there was added a measured amount of antidote dispersed or dissolved in acetone. The quantity of soil treated with the herbicide and antidote was thoroughly mixed to incorporate the herbicide and antidote in the soil uniformly. The seed bed in the third container of soil was covered with the soil treated with the herbicide and antidote and the container was leveled. For each test series, the seed beds of the first and second containers were likewise covered by soil layers. the cover layer of the first container was not treated with herbicide or antidote.
# (§2) The containers were then placed on a bench in a greenhouse and sub-irrigated as required for the duration of the test. […] Plant response is measured in terms of percent injury. Antidote efficacy is indicated as the difference in plant injury by the herbicide(s) without the antidote and with the antidote.
# (§3) This procedure is the same as Procedure I, but modified in the manner that after incorporation of the chemicals (herbicide and antidote) the containers with the covered seedbed were treated with an initial overhead irrigation equivalent to 0.6 cm rainfall, then subsequently sub-irrigated as required on greenhouse benches.
# (§4) In the series of greenhouse tests described below, for routine screening purposes the herbicide/antidote compositions were tested in crop/weed combinations involving corn as the crop and either or both of the weeds barnyardgrass (Echinochloa crusgalli), a monocotyledonous weed, and velvetleaf (Abutilon theophrasti), a dicotyledonous weed. In the tables below, these weeds are indicated by the symbols "BYG" and "VL", respectively.
# (§5) In this example the safening effect on a composition comprising Herbicide No. 1 and another leading rice herbicide, i.e., Herbicide No. 13, was investigated using the same antidotes and test procedure described in the preceding example. Herbicide No. 13 is pretilachlor, active ingredient used in the commercial rice herbicides RIFIT®, SOFIT® and SOFIT® SUPER.
# [2] = test system: velvetleaf (Abutilon theophrasti); experiment: as above
# Experimental: as §1, §2, §3, §4, §5
# [3] = test system: corn; experiment: Example 22: retest of Example 21 at reduced greenhouse temperatures; details: Table 22
# Experimental: as §1, §2, §3
# In this example, tests were conducted as in the preceding Examples 18-20, except here the co-herbicidal component was SUTAN® PLUS, a commercial product comprising as the active herbicidal ingredient the compound butylate (Herbicide No. 10) and an antidote […] (Antidote No. 1). Again, the antidotal compounds herein were Nos. 1, 2, 7, 13 and 15. Procedure II was used.
# The experiments in this example were designed as a retest of those described in Example 21 in view of the uncharacteristically poor corn safety and weed control, believed to have resulted from unseasonably high temperatures in the greenhouse. Accordingly, temperatures were reduced for these tests.
# [4] = test system: corn; experiment: Example 9, Procedure II: Herbicide No. 1 + pretilachlor (No. 13) with antidotes
# Experimental: as §1, §2, §3, §5
# [5] = test system: barnyardgrass (Echinochloa crusgalli); experiment: Example 6, Procedure II: Herbicide No. 1 + alachlor (No. 7) with antidotes
# Experimental: as §1, §2, §3, §4
# (§6) This example was designed to investigate the antidotal efficacy of a plurality of antidotal compounds against a composition comprising Herbicide No. 1 in combination with Herbicide No. 7 (alachlor). The antidotal compounds used herein were Nos. 1, 2, 7, 13 and 15.
# (§7) In this example, Procedure II described above was followed. The data from the tests in this example is shown in Table 6 and represents averages of duplicate replications.
# [6] = test system: velvetleaf (Abutilon theophrasti); experiment: as above
# Experimental: as §1, §2, §3, §4, §6, §7
# [7] = test system: corn; experiment: as above
# Experimental: as §1, §2, §3, §6, §7
# [8] = test system: corn; experiment: Example 5, Procedure I: Herbicide No. 1 + alachlor (No. 7) with Antidote Nos. 15 and 16; details: for % Injury Corn: no antidote
# Experimental: as §1, §2
# This example describes tests with Antidote Nos. 15 and 16 to safen Herbicide No. 1 according to Procedure I using corn and the weeds barnyardgrass and velvetleaf as the test plants.
# In the tests described in this example, the same procedure described in Example 4 was performed simultaneously therewith and under the same conditions, except that a co-herbicide, alachlor, was included in the same composition with Herbicide No. 1 and Antidote Nos. 15 and 16. Alachlor (Herbicide No. 7 herein) is the active ingredient in the commercial product LASSO® herbicide.
# [9] = test system: corn; experiment: Example 3, Procedure I: antidotes against Herbicide No. 1; details: for % Injury Corn: no antidote
# Experimental: as §1, §2
# This example details the results of tests with Antidote Nos. 12, 15 and 16 to safen Herbicide No. 1 over application rates ranging from 4.48 kg/ha down to 0.56 kg/ha, in corn in the presence of barnyardgrass. Procedure I described above was used in these tests.
# [10] = test system: corn; experiment: Example 13, Procedure II: Herbicide No. 1 + acetochlor (No. 6) with dichloroacetamide antidotes; details: for % Injury Corn: no antidote
# Experimental: as §1, §2, §3
# In this example a plurality of dichloroacetamide antidotes were tested for their safening efficacy against a herbicidal composition comprising Herbicide No. 1 and a co-herbicide, acetochlor (Herbicide No. 6) in corn in the presence of velvetleaf. The procedure used in this example was Procedure II above.
# [11] = Herbicide No.1 0.14 kg/ha + Herbicide No.13 2.24 kg/ha, antidote rate 2.24 kg/ha
# [12] = Herbicide No.1 0.14 kg/ha + Herbicide No.13 2.24 kg/ha, antidote rate 8.96 kg/ha
# [13] = Herbicide No.1 0.56 kg/ha + Herbicide No.13 2.24 kg/ha, antidote rate 2.24 kg/ha
# [14] = Herbicide No.1 0.56 kg/ha + Herbicide No.13 2.24 kg/ha, antidote rate 8.96 kg/ha
# [15] = Herbicide No.1 0.56 Kg/ha + SUTAN + 8.96 Kg/ha + antidote 2.24 Kg/ha
# [16] = Herbicide No.1 0.56 Kg/ha + SUTAN + 8.96 Kg/ha + antidote 8.96 Kg/ha
# [17] = Herbicide No.1 1.12 Kg/ha + SUTAN + 8.96 Kg/ha + antidote 2.24 Kg/ha
# [18] = Herbicide No.1 1.12 Kg/ha + SUTAN + 8.96 Kg/ha + antidote 8.96 Kg/ha
# [19] = Herbicide No.1 0.14 + No.7 4.48 kg/ha + antidote 2.24 kg/ha
# [20] = Herbicide No.1 0.14 + No.7 4.48 kg/ha + antidote 8.96 kg/ha
# [21] = Herbicide No.1 0.56 + No.7 4.48 kg/ha + antidote 2.24 kg/ha
# [22] = Herbicide No.1 0.56 + No.7 4.48 kg/ha + antidote 8.96 kg/ha
# [23] = Herbicide No.1 0.14 + No.7 4.48 kg/ha, no antidote
# [24] = Herbicide No.1 0.14 kg/ha alone
# [25] = Herbicide No.1 0.56 + No.7 (alachlor) 4.48 kg/ha, no antidote, average of duplicates
# [26] = Herbicide No.1 0.56 kg/ha alone
structure (smiles),measurement,setting,value
CC1(C(Cl)Cl)OCCO1 [compound 13],% Injury BYG,[1]; [11],100%
same,% Injury BYG,[1]; [12],100%
same,% Injury BYG,[1]; [13],100%
same,% Injury BYG,[1]; [14],100%
same,% Injury VL,[2]; [11],70%
same,% Injury VL,[2]; [12],75%
same,% Injury VL,[2]; [13],90%
same,% Injury VL,[2]; [14],90%
same,% Injury Corn,[3]; [15],70%
same,% Injury Corn,[3]; [16],60%
same,% Injury Corn,[3]; [17],75%
same,% Injury Corn,[3]; [18],60%
same,% Injury Corn,[4]; [11],10%
same,% Injury Corn,[4]; [12],0%
same,% Injury Corn,[4]; [13],25%
same,% Injury Corn,[4]; [14],20%
same,% Injury BYG,[5]; [19],100%
same,% Injury BYG,[5]; [20],100%
same,% Injury BYG,[5]; [21],100%
same,% Injury BYG,[5]; [22],100%
same,% Injury VL,[6]; [19],75%
same,% Injury VL,[6]; [20],65%
same,% Injury VL,[6]; [21],90%
same,% Injury VL,[6]; [22],90%
same,% Injury Corn,[7]; [19],0%
same,% Injury Corn,[7]; [20],0%
same,% Injury Corn,[7]; [21],5%
same,% Injury Corn,[7]; [22],15%
COC(=O)c1c(Cl)nn(C)c1S(=O)(=O)NC(=O)Nc1nc(OC)cc(OC)n1 [Herbicide No. 1],% Injury Corn,"[3]; Herbicide No.1 0.56 Kg/ha + SUTAN + 8.96 Kg/ha, no added antidote",55%
same,% Injury Corn,[3]; Herbicide No.1 0.56 Kg/ha alone,60%
same,% Injury Corn,"[3]; Herbicide No.1 1.12 Kg/ha + SUTAN + 8.96 Kg/ha, no added antidote",60%
same,% Injury Corn,[3]; Herbicide No.1 1.12 Kg/ha alone,65%
same,% Injury Corn,[8]; Herbicide No.1 4.48 + No.7 0.56 kg/ha,95%
same,% Injury Corn,[8]; Herbicide No.1 4.48 + No.7 2.24 kg/ha,95%
same,% Injury Corn,[8]; Herbicide No.1 6.72 + No.7 0.56 kg/ha,93%
same,% Injury Corn,[8]; Herbicide No.1 6.72 + No.7 (alachlor) 2.24 kg/ha,95%
same,% Injury Corn,[9]; Herb. No. 1 0.56 kg/ha,7%
same,% Injury Corn,[9]; Herb. No. 1 1.12 kg/ha,13%
same,% Injury Corn,[9]; Herb. No. 1 2.24 kg/ha,38%
same,% Injury Corn,[9]; Herb. No. 1 4.48 kg/ha,60%
same,injury to corn,"[4]; Herbicide No. 1 0.56 kg/ha + Herbicide No. 13 2.24 kg/ha in combination, no antidote",65%
same,% Injury BYG,[5]; [23],100%
same,% Injury BYG,[5]; [24],20%
same,% Injury BYG,[5]; [25],100%
same,% Injury BYG,[5]; [26],70%
same,% Injury VL,[6]; [23],70%
same,% Injury VL,[6]; [24],40%
same,% Injury VL,[6]; [25],85%
same,% Injury VL,[6]; [26],60%
same,% Injury Corn,[10]; [24],10%
same,% Injury Corn,[10]; [26],55%
same,% Injury Corn,[10]; Herbicide No.1 2.24 kg/ha alone,80%
same,% Injury Corn,[7]; [23],20%
same,% Injury Corn,[7]; [24],5%
same,% Injury Corn,[7]; [25],30%
same,% Injury Corn,[7]; [26],25%
O=C(C(Cl)Cl)N1CCOC12CCCCC2 [compound 7],% Injury BYG,[1]; [11],100%
same,% Injury BYG,[1]; [12],100%
same,% Injury BYG,[1]; [13],100%
same,% Injury BYG,[1]; [14],100%
same,% Injury VL,[2]; [11],80%
same,% Injury VL,[2]; [12],75%
same,% Injury VL,[2]; [13],85%
same,% Injury VL,[2]; [14],85%
same,% Injury Corn,[3]; [15],45%
same,% Injury Corn,[3]; [16],50%
same,% Injury Corn,[3]; [17],65%
same,% Injury Corn,[3]; [18],50%
same,% Injury Corn,[4]; [11],10%
same,% Injury Corn,[4]; [12],0%
same,% Injury Corn,[4]; [13],30%
same,% Injury Corn,[4]; [14],25%
same,% Injury BYG,[5]; [19],100%
same,% Injury BYG,[5]; [20],100%
same,% Injury BYG,[5]; [21],100%
same,% Injury BYG,[5]; [22],100%
same,% Injury VL,[6]; [19],75%
same,% Injury VL,[6]; [20],75%
same,% Injury VL,[6]; [21],90%
same,% Injury VL,[6]; [22],90%
same,% Injury Corn,[7]; [19],0%
same,% Injury Corn,[7]; [20],10%
same,% Injury Corn,[7]; [21],10%
same,% Injury Corn,[7]; [22],5%
O=C1OC(=O)c2cccc3cccc1c23 [compound 2],% Injury BYG,[1]; [11],100%
same,% Injury BYG,[1]; [12],100%
same,% Injury BYG,[1]; [13],100%
same,% Injury BYG,[1]; [14],100%
same,% Injury VL,[2]; [11],80%
same,% Injury VL,[2]; [12],75%
same,% Injury VL,[2]; [13],85%
same,% Injury VL,[2]; [14],80%
same,% Injury Corn,[3]; [15],45%
same,% Injury Corn,[3]; [16],55%
same,% Injury Corn,[3]; [17],40%
same,% Injury Corn,[3]; [18],50%
same,% Injury BYG,[5]; [19],100%
same,% Injury BYG,[5]; [20],100%
same,% Injury BYG,[5]; [21],100%
same,% Injury BYG,[5]; [22],100%
same,% Injury VL,[6]; [19],70%
same,% Injury VL,[6]; [20],75%
same,% Injury VL,[6]; [21],90%
same,% Injury VL,[6]; [22],90%
same,% Injury Corn,[7]; [19],0%
same,% Injury Corn,[7]; [20],15%
same,% Injury Corn,[7]; [21],10%
same,% Injury Corn,[7]; [22],15%
"CC1(C)OC(c2ccco2)CN1C(=O)C(Cl)Cl (stereo not shown) [Antidote No. 15, Oxazolidine, 3-(dichloroacetyl)-5-(2-furanyl)-2,2-dimethyl]","safening of corn, assessment in words","[8]; Herbicide Nos. 1 and 7, Table 5",substantial safening of corn
same,"safening of corn, assessment in words","[9]; Herbicide No. 1, Table 3",excellent protection for corn
same,"safening of corn, assessment in words","[4]; Herbicide Nos. 1 and 13, Table 9",commercial-level safening of corn
same,"safening of corn, assessment in words","[10]; Herbicide Nos. 1 and 6, Table 13",most active overall
